These results are taken from paper PMC7827406, “Structure–Activity Relationship (SAR) Study of Spautin-1 to Entail the Discovery of Novel NEK4 Inhibitors” (International Journal of Molecular Sciences, 2021).

Where two headings read alike, the source gives them in different places.

Holding throughout (experiment): biochemical
Holding throughout (design): Eurofins KinaseProfiler full panel at Km ATP, residual kinase activity (%) relative to DMSO

Test [1] has as its target T1, Bmx(h) (Homo sapiens, UniProt P51813).
T1 sequence (P51813 1-675): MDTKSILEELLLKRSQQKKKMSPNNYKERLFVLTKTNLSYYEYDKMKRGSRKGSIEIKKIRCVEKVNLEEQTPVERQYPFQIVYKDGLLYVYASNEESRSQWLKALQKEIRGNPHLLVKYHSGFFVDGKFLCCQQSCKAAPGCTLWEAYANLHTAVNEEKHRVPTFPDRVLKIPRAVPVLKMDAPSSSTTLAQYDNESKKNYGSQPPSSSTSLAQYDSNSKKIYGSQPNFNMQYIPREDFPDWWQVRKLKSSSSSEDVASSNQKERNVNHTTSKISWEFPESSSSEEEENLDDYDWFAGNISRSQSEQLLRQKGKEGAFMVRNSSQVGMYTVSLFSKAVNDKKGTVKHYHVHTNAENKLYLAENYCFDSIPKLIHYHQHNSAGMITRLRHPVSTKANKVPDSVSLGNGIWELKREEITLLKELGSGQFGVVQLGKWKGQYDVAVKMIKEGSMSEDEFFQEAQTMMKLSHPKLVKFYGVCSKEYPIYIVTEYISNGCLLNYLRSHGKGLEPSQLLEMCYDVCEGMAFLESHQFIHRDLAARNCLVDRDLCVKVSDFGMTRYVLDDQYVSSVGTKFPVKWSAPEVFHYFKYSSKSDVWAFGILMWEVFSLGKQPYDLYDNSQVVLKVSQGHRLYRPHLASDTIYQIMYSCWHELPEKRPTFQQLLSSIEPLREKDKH
The essentials:
(§1)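 Compounds screened at 10 µM in radiometric kinase activity assays at Km ATP, reported as remaining kinase activity (%). A KINOMEscan competition-binding screen at 10 µM measured DNA-tagged kinase retained on immobilized active-site ligand by qPCR.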

Test [2] concerns the target T2, MAP4K3(h) (Homo sapiens, UniProt Q8IVH8).
T2 sequence (Q8IVH8 1-894): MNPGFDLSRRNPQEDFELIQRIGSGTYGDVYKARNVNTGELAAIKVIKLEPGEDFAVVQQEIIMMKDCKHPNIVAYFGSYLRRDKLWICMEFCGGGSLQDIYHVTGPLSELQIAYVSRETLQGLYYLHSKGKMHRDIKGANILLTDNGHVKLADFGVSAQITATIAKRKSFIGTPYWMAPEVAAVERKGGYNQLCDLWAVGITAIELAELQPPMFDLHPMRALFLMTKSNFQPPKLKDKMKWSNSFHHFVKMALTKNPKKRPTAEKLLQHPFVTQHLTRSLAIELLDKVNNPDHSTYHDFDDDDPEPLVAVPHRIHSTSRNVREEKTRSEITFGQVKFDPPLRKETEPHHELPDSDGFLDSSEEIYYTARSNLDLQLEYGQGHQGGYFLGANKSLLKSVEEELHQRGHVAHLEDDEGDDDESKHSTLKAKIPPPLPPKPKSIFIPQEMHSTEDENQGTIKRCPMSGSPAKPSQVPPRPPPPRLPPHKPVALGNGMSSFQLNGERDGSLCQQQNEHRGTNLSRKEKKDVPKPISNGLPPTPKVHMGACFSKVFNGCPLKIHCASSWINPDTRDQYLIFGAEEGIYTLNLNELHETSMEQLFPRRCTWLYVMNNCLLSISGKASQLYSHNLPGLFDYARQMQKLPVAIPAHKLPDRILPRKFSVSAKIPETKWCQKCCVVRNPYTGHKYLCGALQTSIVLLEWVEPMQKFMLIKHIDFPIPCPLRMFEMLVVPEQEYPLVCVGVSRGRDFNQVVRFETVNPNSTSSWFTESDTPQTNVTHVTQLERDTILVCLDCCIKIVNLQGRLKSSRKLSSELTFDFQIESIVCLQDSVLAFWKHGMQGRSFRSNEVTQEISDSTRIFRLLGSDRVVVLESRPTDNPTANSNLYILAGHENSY
The essentials:
as §1

Test [3] addresses STK25(h) (Homo sapiens, UniProt O00506). A digest of the protocol: as §1
The target of test [4] is T3, CK2α1(h) (Homo sapiens, UniProt P68400).
T3 construct: gene CSNK2A1
A digest of the protocol:
as §1

The target in test [5] is CDK16/cyclinY(h) (Homo sapiens, UniProt Q00536). The essentials:
as §1

The target in test [6] is SRPK1(h) (Homo sapiens, UniProt Q96SB4). The essentials:
as §1

The mark [7] stands for this setting: read-out: Residual activity (%) 5at.
Setting [8] is: read-out: Residual activity (%) 5ay.
The mark [9] stands for this setting: read-out: Residual activity (%) 5as.
[10] abbreviates: read-out: Residual activity (%) Spautin-1 5aa.

T3 sequence (P68400 whole entry): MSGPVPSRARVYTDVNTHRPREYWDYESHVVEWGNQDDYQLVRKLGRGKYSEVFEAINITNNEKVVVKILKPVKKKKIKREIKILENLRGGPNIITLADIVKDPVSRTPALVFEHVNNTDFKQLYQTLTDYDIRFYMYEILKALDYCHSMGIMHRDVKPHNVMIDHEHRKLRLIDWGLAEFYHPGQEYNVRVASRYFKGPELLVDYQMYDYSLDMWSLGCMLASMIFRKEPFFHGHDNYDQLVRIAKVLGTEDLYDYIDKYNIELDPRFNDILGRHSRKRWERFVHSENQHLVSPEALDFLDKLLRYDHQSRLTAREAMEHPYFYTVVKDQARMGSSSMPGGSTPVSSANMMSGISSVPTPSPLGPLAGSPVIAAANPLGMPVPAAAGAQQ
Sequence of SRPK1(h) (Q96SB4 whole entry): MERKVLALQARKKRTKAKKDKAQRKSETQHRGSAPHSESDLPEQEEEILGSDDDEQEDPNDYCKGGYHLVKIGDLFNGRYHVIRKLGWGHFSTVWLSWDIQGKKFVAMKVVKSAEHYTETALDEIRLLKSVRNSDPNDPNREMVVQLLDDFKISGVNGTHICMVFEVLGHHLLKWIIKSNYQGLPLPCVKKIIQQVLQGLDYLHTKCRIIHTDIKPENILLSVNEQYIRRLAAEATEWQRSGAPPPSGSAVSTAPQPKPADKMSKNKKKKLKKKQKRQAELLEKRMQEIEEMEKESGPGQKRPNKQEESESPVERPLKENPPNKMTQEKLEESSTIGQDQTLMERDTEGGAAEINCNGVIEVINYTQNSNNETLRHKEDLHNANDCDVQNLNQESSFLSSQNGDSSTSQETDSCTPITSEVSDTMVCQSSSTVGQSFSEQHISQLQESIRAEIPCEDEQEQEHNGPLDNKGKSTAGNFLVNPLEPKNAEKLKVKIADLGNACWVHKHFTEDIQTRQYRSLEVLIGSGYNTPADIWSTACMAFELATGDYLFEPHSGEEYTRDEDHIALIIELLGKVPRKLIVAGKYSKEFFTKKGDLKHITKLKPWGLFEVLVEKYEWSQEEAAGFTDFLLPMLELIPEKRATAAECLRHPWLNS
Sequence of CDK16/cyclinY(h) (Q00536 whole entry): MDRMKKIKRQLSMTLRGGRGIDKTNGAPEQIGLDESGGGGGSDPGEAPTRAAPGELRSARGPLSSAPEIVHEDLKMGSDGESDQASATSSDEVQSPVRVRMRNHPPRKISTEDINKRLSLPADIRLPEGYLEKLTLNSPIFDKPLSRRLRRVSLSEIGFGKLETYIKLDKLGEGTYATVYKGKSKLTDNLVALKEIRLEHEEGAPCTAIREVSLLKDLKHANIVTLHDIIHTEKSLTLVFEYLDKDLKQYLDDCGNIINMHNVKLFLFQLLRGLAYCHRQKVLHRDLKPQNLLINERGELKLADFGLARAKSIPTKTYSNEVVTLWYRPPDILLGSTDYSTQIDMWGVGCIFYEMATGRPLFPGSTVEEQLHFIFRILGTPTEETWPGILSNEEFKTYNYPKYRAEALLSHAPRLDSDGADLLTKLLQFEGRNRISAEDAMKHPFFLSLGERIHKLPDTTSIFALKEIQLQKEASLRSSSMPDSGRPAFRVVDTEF
Sequence of CDK16/cyclinY(h) (Q8ND76 whole entry partner): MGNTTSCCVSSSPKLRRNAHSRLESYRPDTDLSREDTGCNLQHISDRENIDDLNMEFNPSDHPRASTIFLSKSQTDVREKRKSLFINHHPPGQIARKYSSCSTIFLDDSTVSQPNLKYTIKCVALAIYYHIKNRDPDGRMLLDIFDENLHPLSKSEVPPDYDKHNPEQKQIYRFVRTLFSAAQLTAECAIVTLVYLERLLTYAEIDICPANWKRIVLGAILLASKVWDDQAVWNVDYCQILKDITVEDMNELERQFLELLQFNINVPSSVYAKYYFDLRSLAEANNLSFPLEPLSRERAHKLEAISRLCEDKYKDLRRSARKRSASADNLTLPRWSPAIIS
Sequence of STK25(h) (O00506 whole entry): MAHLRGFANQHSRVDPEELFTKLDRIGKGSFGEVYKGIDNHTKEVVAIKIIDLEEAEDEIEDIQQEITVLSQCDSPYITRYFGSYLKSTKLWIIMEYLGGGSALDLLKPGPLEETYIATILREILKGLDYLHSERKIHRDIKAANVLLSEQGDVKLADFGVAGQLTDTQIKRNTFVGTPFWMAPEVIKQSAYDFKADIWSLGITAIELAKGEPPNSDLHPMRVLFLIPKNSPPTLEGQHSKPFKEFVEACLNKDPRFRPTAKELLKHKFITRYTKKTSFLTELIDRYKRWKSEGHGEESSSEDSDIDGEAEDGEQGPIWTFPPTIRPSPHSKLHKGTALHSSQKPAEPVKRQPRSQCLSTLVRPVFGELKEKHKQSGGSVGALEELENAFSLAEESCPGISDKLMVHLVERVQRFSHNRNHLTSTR

Consider `Fc1ccc2ncnc(NCCc3ccc(Cl)cc3)c2c1` [5at, N-[2-(4-Chlorophenyl)Ethyl]-6-Fluoro-4-Quinazolinamine], for which the remaining activity at 10 µM in test [1] (setting [7]) was determined as 78%; in test [2] (setting [7]), 93%; in test [3] (setting [7]), 111%; in test [4] (setting [7]), 78%; in test [5] (setting [7]), 104%; in test [6] (setting [7]), 108%.
Consider `COc1ccc2ncnc(Nc3cccc(F)c3)c2c1` [5ay, N-(3-Fluorophenyl)-6-Methoxy-4-Quinazolinamine], for which the remaining activity at 10 µM in test [1] (setting [8]) is 77%; in test [2] (setting [8]) it was 87%; in test [3] (setting [8]), 114%; in test [5] (setting [8]), 81%; in test [6] (setting [8]), 116%.
Take `Fc1ccc(CCNc2ncnc3ccc(F)cc23)cc1` [5as, 6-Fluoro-N-[2-(4-Fluorophenyl)Ethyl]-4-Quinazolinamine]: the remaining activity at 10 µM turned out to be 78% in test [1] (setting [9]); 87% in test [2] (setting [9]); 112% in test [3] (setting [9]); 84% in test [4] (setting [9]); 114% in test [5] (setting [9]); 112% in test [6] (setting [9]).
For `Fc1ccc(CNc2ncnc3ccc(F)cc23)cc1` [5aa, 6-Fluoro-N-(4-fluorobenzyl)-4-Quinazolinamine], the remaining activity at 10 µM in test [1] (setting [10]) amounted to 79%; in test [2] (setting [10]), 99%; in test [3] (setting [10]), 114%; in test [4] (setting [10]) it was 105%; in test [5] (setting [10]), 90%; in test [6] (setting [10]), 121%.
